Inconclusive results and toxic doses are left out. Rule as the data show it: active = T/C of 150% or more; inactive = T/C below 125%.
Test system: L1210 leukemia ip in BDF1 mice, survival T/C
Assay: NCI In Vivo Anticancer Drug Screen. Data for tumor model L1210 Leukemia (intraperitoneal) in B6D2F1 (BDF1) mice
Conditions: endpoint: mean survival time, higher = longer survival
Summary of the method: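 Transplanted-tumor mice were given test agent; controls received vehicle only. Survival readings from the two groups were divided (treated over control).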

Measured: T/C

NNC(=O)c1nc(N)n[nH]1
inactive: dose: 100.0 mg/kg/injection, schedule: Q01DX009 (ip), vehicle: saline with Tween-80 98 % of control | dose: 200.0 mg/kg/injection, schedule: Q01DX009 (ip), vehicle: saline with Tween-80 95 % of control | dose: 400.0 mg/kg/injection, schedule: Q01DX009 (ip), vehicle: saline with Tween-80 109 % of control

CCCCCC[P+](=O)CCCCCC
inactive: dose: 100.0 mg/kg/injection, schedule: Q04DX002 (ip), vehicle: gum acacia 97 % of control | dose: 200.0 mg/kg/injection, schedule: Q04DX002 (ip), vehicle: gum acacia 103 % of control

CN(C)CCCN
inactive: dose: 100.0 mg/kg/injection, schedule: Q01DX001 (ip), vehicle: saline 97 % of control | dose: 200.0 mg/kg/injection, schedule: Q01DX001 (ip), vehicle: saline 108 % of control | dose: 400.0 mg/kg/injection, schedule: Q01DX001 (ip), vehicle: saline 95 % of control

N#CCc1cnc2ccccc2n1
inactive: dose: 6.25 mg/kg/injection, schedule: Q01DX009 (ip), vehicle: saline with Tween-80 96 % of control | dose: 12.5 mg/kg/injection, schedule: Q01DX009 (ip), vehicle: saline with Tween-80 98 % of control | dose: 12.5 mg/kg/injection, schedule: Q04DX003 (ip), vehicle: saline with Tween-80 94 % of control | dose: 25.0 mg/kg/injection, schedule: Q01DX009 (ip), vehicle: saline with Tween-80 101 % of control | dose: 25.0 mg/kg/injection, schedule: Q04DX003 (ip), vehicle: saline with Tween-80 96 % of control

C[n+]1c2cc(N)ccc2cc2ccc(N)cc21
inactive: dose: 3.0 mg/kg/injection, schedule: Q04DX003 (ip), vehicle: saline 108 % of control | dose: 3.5 mg/kg/injection, schedule: Q01DX009 (ip), vehicle: saline 111 % of control | dose: 5.3 mg/kg/injection, schedule: Q01DX009 (ip), vehicle: saline 118 % of control | dose: 6.0 mg/kg/injection, schedule: Q04DX003 (ip), vehicle: saline 105 % of control | dose: 6.25 mg/kg/injection, schedule: Q01DX009 (ip), vehicle: saline 122 % of control | dose: 12.0 mg/kg/injection, schedule: Q04DX003 (ip), vehicle: saline 113 % of control | dose: 12.5 mg/kg/injection, schedule: Q04DX003 (ip), vehicle: saline 98 % of control

CCOC(=O)C(C(C)=O)C(=O)OCC
inactive: dose: 25.0 mg/kg/injection, schedule: Q01DX009 (ip), vehicle: other 101 % of control | dose: 50.0 mg/kg/injection, schedule: Q01DX009 (ip), vehicle: other 103 % of control | dose: 100.0 mg/kg/injection, schedule: Q01DX009 (ip), vehicle: other 109 % of control | dose: 200.0 mg/kg/injection, schedule: Q01DX009 (ip), vehicle: other 100 % of control | dose: 400.0 mg/kg/injection, schedule: Q01DX009 (ip), vehicle: other 95 % of control

Nc1nc(N)c2nc(CNc3ccc(CC(=O)NC(CC(=O)O)C(=O)O)cc3)cnc2n1 (stereo not drawn)
inactive: dose: 25.0 mg/kg/injection, schedule: Q01DX009 (ip), vehicle: sodium bicarbonate 104 % of control | dose: 50.0 mg/kg/injection, schedule: Q01DX009 (ip), vehicle: sodium bicarbonate 106 % of control | dose: 100.0 mg/kg/injection, schedule: Q01DX009 (ip), vehicle: sodium bicarbonate 108 % of control

CC1CNC(=S)S1 (stereo not drawn)
inactive: dose: 100.0 mg/kg/injection, schedule: Q01DX009 (ip), vehicle: Klucel (hydroxypropylcellulose) (HPC) 105 % of control | dose: 100.0 mg/kg/injection, schedule: Q04DX003 (ip), vehicle: Klucel (hydroxypropylcellulose) (HPC) 107 % of control | dose: 200.0 mg/kg/injection, schedule: Q01DX009 (ip), vehicle: Klucel (hydroxypropylcellulose) (HPC) 100 % of control | dose: 200.0 mg/kg/injection, schedule: Q04DX003 (ip), vehicle: Klucel (hydroxypropylcellulose) (HPC) 102 % of control | dose: 400.0 mg/kg/injection, schedule: Q04DX003 (ip), vehicle: Klucel (hydroxypropylcellulose) (HPC) 102 % of control
